In publication PMC6934184, “Selective DNA-PKcs inhibition extends the therapeutic index of localized radiotherapy and chemotherapy” (The Journal of Clinical Investigation, 2019):

Target: T1, PRKCH (PKC eta) (Homo sapiens, UniProt P24723)
T1 construct: purchased Thermo Fisher Scientific (Life Technologies) SelectScreen
Experiment: SelectScreen Z'LYTE
Type: biochemical
Procedure, shortened: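 NU5455 was profiled across the SelectScreen Broad panel of kinase activity and binding assays. Z'LYTE reactions such as CSF1R ran at apparent Km ATP, while the Adapta CAMK1 assay used ATP listed as 10. Values are given as percent.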

T1 sequence (P24723 whole entry): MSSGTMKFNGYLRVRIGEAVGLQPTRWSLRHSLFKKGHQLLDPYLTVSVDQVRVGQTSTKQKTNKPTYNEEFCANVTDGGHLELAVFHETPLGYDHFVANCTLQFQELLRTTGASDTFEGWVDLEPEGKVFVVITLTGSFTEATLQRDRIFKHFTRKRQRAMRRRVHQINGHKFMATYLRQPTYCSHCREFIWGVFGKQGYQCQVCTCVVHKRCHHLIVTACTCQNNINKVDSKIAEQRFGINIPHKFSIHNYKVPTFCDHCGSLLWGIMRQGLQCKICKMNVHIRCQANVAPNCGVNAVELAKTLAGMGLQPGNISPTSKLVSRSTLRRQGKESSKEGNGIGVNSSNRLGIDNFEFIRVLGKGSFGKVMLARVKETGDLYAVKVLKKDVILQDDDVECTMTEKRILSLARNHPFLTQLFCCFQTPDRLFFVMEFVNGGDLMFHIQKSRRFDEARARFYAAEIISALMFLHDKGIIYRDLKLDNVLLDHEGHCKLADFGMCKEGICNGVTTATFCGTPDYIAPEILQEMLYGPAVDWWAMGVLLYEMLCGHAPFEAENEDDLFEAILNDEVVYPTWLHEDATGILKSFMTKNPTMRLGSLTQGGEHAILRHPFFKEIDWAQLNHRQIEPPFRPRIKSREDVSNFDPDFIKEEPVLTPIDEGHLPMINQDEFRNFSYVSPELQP

Q: How did the inhibition at 1 µM turn out when CN(C(=O)CN1CCOCC1)c1ccc2sc3c(-c4cccc5c(=O)cc(N6CC7CCC(C6)O7)oc45)cccc3c2c1 [NU5455] was run?
A: -4.6%
